{"source": "PubChem BioAssay AID1259407", "about": "(Chemical Carcinogenesis Research Information System (CCRIS), 2018)", "test_system": "CCRIS mutagenicity, Ames/micronucleus/aberration tests", "experiment": "CCRIS mutagenicity studies", "key": {"[1]": {"conditions": "Test System: AMES SALMONELLA TYPHIMURIUM, Strain/Indicator: TA100, Metabolic Activation: NONE, Method: PREINCUBATION"}, "[2]": {"conditions": "Test System: AMES SALMONELLA TYPHIMURIUM, Strain/Indicator: TA100, Metabolic Activation: NONE, Method: STANDARD PLATE"}, "[3]": {"conditions": "Test System: AMES SALMONELLA TYPHIMURIUM, Strain/Indicator: TA100, Metabolic Activation: RAT, LIVER, S-9, AROCLOR 1254, Method: STANDARD PLATE"}, "[4]": {"conditions": "Test System: AMES SALMONELLA TYPHIMURIUM, Strain/Indicator: TA98, Metabolic Activation: NONE, Method: PREINCUBATION"}}, "note": "Activity calls are given as the source filed them. How the calls were made is not given here.", "data": [{"smiles": "CC(O)CO", "note": "(centres undefined) (tested in a mixture with another compound)", "values": [{"measurement": "mutagenic call", "setting": "Test System: AMES SALMONELLA TYPHIMURIUM, Strain/Indicator: TA102, Metabolic Activation: RAT, LIVER, S-9, PHENOBARBITAL AND 5,6-BENZOFLAVONE, Method: STANDARD PLATE", "value": "inactive; negative"}, {"measurement": "mutagenic call", "setting": "Test System: AMES SALMONELLA TYPHIMURIUM, Strain/Indicator: TA2638, Metabolic Activation: RAT, LIVER, S-9, PHENOBARBITAL AND 5,6-BENZOFLAVONE, Method: STANDARD PLATE", "value": "inactive; negative"}, {"measurement": "mutagenic call", "setting": "Test System: E. COLI, Strain/Indicator: WP2 (PKM101), Metabolic Activation: RAT, LIVER, S-9, PHENOBARBITAL AND 5,6-BENZOFLAVONE, Method: STANDARD PLATE", "value": "active; positive"}, {"measurement": "mutagenic call", "setting": "Test System: E. COLI, Strain/Indicator: WP2 UVRA (PKM101), Metabolic Activation: RAT, LIVER, S-9, PHENOBARBITAL AND 5,6-BENZOFLAVONE, Method: STANDARD PLATE", "value": "active; positive"}]}, {"smiles": "CC1(c2ccc([N+](=O)[O-])cc2)CO1", "note": "(centres undefined)", "values": [{"measurement": "mutagenic call", "setting": "[1]", "value": "active; positive"}]}, {"smiles": "CNC(N)=O", "values": [{"measurement": "mutagenic call", "setting": "End Point: IN VITRO MICRONUCLEUS, Test System: V79 CELLS, Metabolic Activation: NONE", "value": "inactive; negative"}]}, {"smiles": "CCC[CH2][Sn]([Cl])([Cl])[Cl]", "values": [{"measurement": "mutagenic call", "setting": "Test System: AMES SALMONELLA TYPHIMURIUM, Strain/Indicator: TA98, Metabolic Activation: NONE, Method: SUSPENSION/PLATE", "value": "inactive; negative"}, {"measurement": "mutagenic call", "setting": "Test System: AMES SALMONELLA TYPHIMURIUM, Strain/Indicator: TA100, Metabolic Activation: NONE, Method: SUSPENSION/PLATE", "value": "inactive; negative"}]}, {"smiles": "Cl.Cl.[Cr].c1ccc(-c2ccccn2)nc1.c1ccc(-c2ccccn2)nc1", "values": [{"measurement": "mutagenic call", "setting": "[2]", "value": "active; positive"}]}, {"smiles": "C[C@@H]1CC2c3cc(Br)cc4c3c(cn4CC3CC3)C[C@H]2N(C)C1", "note": "(some centres undefined)", "values": [{"measurement": "mutagenic call", "setting": "[3]", "value": "inactive; negative"}]}, {"smiles": "COC(=O)CCCN(N=O)C(N)=O", "values": [{"measurement": "mutagenic call", "setting": "Test System: E. COLI B, Strain/Indicator: H/R30R, Metabolic Activation: NONE", "value": "active; positive"}, {"measurement": "mutagenic call", "setting": "Test System: E. COLI B, Strain/Indicator: HS30R, Metabolic Activation: NONE", "value": "active; positive"}]}, {"smiles": "O=C(/C=C/c1ccccc1)c1ccccc1", "values": [{"measurement": "mutagenic call", "setting": "Test System: AMES SALMONELLA TYPHIMURIUM, Strain/Indicator: TA98, Metabolic Activation: NONE, Method: STANDARD PLATE", "value": "inactive; negative"}, {"measurement": "mutagenic call", "setting": "Test System: AMES SALMONELLA TYPHIMURIUM, Strain/Indicator: TA98, Metabolic Activation: RAT, LIVER, S-9, AROCLOR 1254, Method: STANDARD PLATE", "value": "inactive; negative"}, {"measurement": "mutagenic call", "setting": "[1]", "value": "inactive; negative"}, {"measurement": "mutagenic call", "setting": "[2]", "value": "inactive; negative"}, {"measurement": "mutagenic call", "setting": "Test System: AMES SALMONELLA TYPHIMURIUM, Strain/Indicator: TA100, Metabolic Activation: RAT, LIVER, S-9, AROCLOR 1254, Method: PREINCUBATION", "value": "inactive; negative"}, {"measurement": "mutagenic call", "setting": "[3]", "value": "inactive; negative"}]}, {"smiles": "O=C(NCO)c1ccc(Cl)cc1", "values": [{"measurement": "mutagenic call", "setting": "Test System: AMES SALMONELLA TYPHIMURIUM, Strain/Indicator: TA100, Metabolic Activation: RAT, LIVER, S-9, AROCLOR AND 3'-PHOSPHOADENOSINE-5'-PHOSPHOSULPHATE GENERATING SYSTEM, Method: PREINCUBATION", "value": "inactive; negative"}, {"measurement": "mutagenic call", "setting": "Test System: AMES SALMONELLA TYPHIMURIUM, Strain/Indicator: TA100, Metabolic Activation: RAT, LIVER, S-9, AROCLOR AND ACETYL COENZYME A, Method: PREINCUBATION", "value": "inactive; negative"}, {"measurement": "mutagenic call", "setting": "Test System: AMES SALMONELLA TYPHIMURIUM, Strain/Indicator: TA100, Metabolic Activation: RAT, LIVER, S-9, AROCLOR, Method: PREINCUBATION", "value": "inactive; negative"}]}, {"smiles": "c1ccc(N=Nc2ccccc2)cc1", "values": [{"measurement": "mutagenic call", "setting": "[1]", "value": "inactive; negative"}, {"measurement": "mutagenic call", "setting": "Test System: AMES SALMONELLA TYPHIMURIUM, Strain/Indicator: TA100, Metabolic Activation: RAT, LIVER, MICROSOMES, AROCLOR 1254, Method: PREINCUBATION", "value": "active; positive"}, {"measurement": "mutagenic call", "setting": "Test System: AMES SALMONELLA TYPHIMURIUM, Strain/Indicator: TA100, Metabolic Activation: RAT, LIVER, MICROSOMES, AZOBENZENE, Method: PREINCUBATION", "value": "inactive; negative"}, {"measurement": "mutagenic call", "setting": "Test System: AMES SALMONELLA TYPHIMURIUM, Strain/Indicator: TA100, Metabolic Activation: RAT, LIVER, MICROSOMES, Method: PREINCUBATION", "value": "inactive; negative"}, {"measurement": "mutagenic call", "setting": "[3]", "value": "active; positive"}, {"measurement": "mutagenic call", "setting": "Test System: AMES SALMONELLA TYPHIMURIUM, Strain/Indicator: TA100, Metabolic Activation: RAT, LIVER, S-9, POLYCHLORINATED BIPHENYLS, Method: PREINCUBATION", "value": "active; positive"}]}, {"smiles": "C1=C/CCC2OC2CC/C=C/CC/1", "note": "(centres undefined)", "values": [{"measurement": "mutagenic call", "setting": "[2]", "value": "inactive; negative"}, {"measurement": "mutagenic call", "setting": "[3]", "value": "inactive; negative"}, {"measurement": "mutagenic call", "setting": "Test System: AMES SALMONELLA TYPHIMURIUM, Strain/Indicator: TA1535, Metabolic Activation: NONE, Method: STANDARD PLATE", "value": "inactive; negative"}, {"measurement": "mutagenic call", "setting": "Test System: AMES SALMONELLA TYPHIMURIUM, Strain/Indicator: TA1535, Metabolic Activation: RAT, LIVER, S-9, AROCLOR 1254, Method: STANDARD PLATE", "value": "inactive; negative"}]}, {"smiles": "CC[C@H]1O[C@@H]1c1ccccc1", "values": [{"measurement": "mutagenic call", "setting": "Test System: AMES SALMONELLA TYPHIMURIUM, Strain/Indicator: TA98, Metabolic Activation: NONE, Method: PREINCUBATION (PHOSPHATE-BUFFERED KCL OR SOLUTE-FREE WATER MEDIA)", "value": "inactive; negative"}, {"measurement": "mutagenic call", "setting": "Test System: AMES SALMONELLA TYPHIMURIUM, Strain/Indicator: TA100, Metabolic Activation: NONE, Method: PREINCUBATION (PHOSPHATE-BUFFERED KCL OR SOLUTE-FREE WATER MEDIA)", "value": "inactive; negative"}, {"measurement": "mutagenic call", "setting": "Test System: AMES SALMONELLA TYPHIMURIUM, Strain/Indicator: TA104, Metabolic Activation: NONE, Method: PREINCUBATION (PHOSPHATE-BUFFERED KCL OR SOLUTE-FREE WATER MEDIA)", "value": "inactive; negative"}]}, {"smiles": "O=[N+]([O-])c1ccc(OCC2CO2)cc1", "note": "(centres undefined)", "values": [{"measurement": "mutagenic call", "setting": "[4]", "value": "inactive; negative"}, {"measurement": "mutagenic call", "setting": "[1]", "value": "active; positive"}, {"measurement": "mutagenic call", "setting": "[2]", "value": "active; positive"}, {"measurement": "mutagenic call", "setting": "Test System: AMES SALMONELLA TYPHIMURIUM, Strain/Indicator: TA104, Metabolic Activation: NONE, Method: STANDARD PLATE", "value": "active; positive"}, {"measurement": "mutagenic call", "setting": "Test System: AMES SALMONELLA TYPHIMURIUM, Strain/Indicator: TA4001, Metabolic Activation: NONE, Method: STANDARD PLATE", "value": "active; positive"}, {"measurement": "mutagenic call", "setting": "Test System: AMES SALMONELLA TYPHIMURIUM, Strain/Indicator: TA4006, Metabolic Activation: NONE, Method: STANDARD PLATE", "value": "active; positive"}]}, {"smiles": "CN1CCNCC1", "values": [{"measurement": "mutagenic call", "setting": "[4]", "value": "inactive; negative"}, {"measurement": "mutagenic call", "setting": "Test System: AMES SALMONELLA TYPHIMURIUM, Strain/Indicator: TA98, Metabolic Activation: RAT, LIVER, S-9, PCB, Method: PREINCUBATION", "value": "inactive; negative"}, {"measurement": "mutagenic call", "setting": "[1]", "value": "inactive; negative"}, {"measurement": "mutagenic call", "setting": "Test System: AMES SALMONELLA TYPHIMURIUM, Strain/Indicator: TA100, Metabolic Activation: RAT, LIVER, S-9, PCB, Method: PREINCUBATION", "value": "inactive; negative"}]}]}
